Source: PubChem BioAssay AID1996
Converted amounts (≈) assume the structure as drawn.

conditions: buffer; pH 7.4; 200.0 µM

Structure (SMILES)	solubility kinetic [µg/mL]
COC(=O)c1ccsc1NC(=O)c1ccco1	3.2 (≈ 12.7 µM)
COCc1cc(C)nc(SCC(=O)NCC2CCCO2)c1C#N (centres undefined)	> 50.3
Cc1cccc(NC(=O)CCCn2c(=S)[nH]c3ccccc3c2=O)c1	0.3 (≈ 0.849 µM)
CC(=O)Nc1c(Cl)cnn(-c2ccccc2)c1=O	> 39.6
Cc1cc(C)nc(N2CCN(c3ccc(F)cc3)CC2)n1	2.1 (≈ 7.33 µM)
Cc1cc(C)nc(Nc2ccc(Br)cc2C(=O)O)n1.Cl	> 53.8
O=C(Nc1nccs1)c1c(O)c2c(n(Cc3ccco3)c1=O)CCCC2	< 0.3
Cc1cc2c(cc1C)C(c1cccc(F)c1)CC(=O)N2 (centres undefined)	< 0.6
Cc1cccc(C)c1NC(=S)NCc1ccccc1	> 40.6
O=C1c2ccc([N+](=O)[O-])cc2S(=O)(=O)N1Cc1ccccc1	8.3 (≈ 26.1 µM)
Nc1cccc(CP(=O)(c2ccccc2)c2ccccc2)c1	> 46.1
Cc1cc(C)c(C(=O)Nc2ccc(C)c(C)c2)c(CC(C)(C)C(=O)O)c1	> 53
Cc1cnc(C(=O)OCC(=O)c2ccc[nH]2)cn1	> 36.8
CCOC1(/N=C(\C)NS(=O)(=O)c2ccc(Cl)cc2)C(C)=CC(=O)C=C1C	> 59.5
O=C(NCCCn1ccnc1)c1ccc(Cl)c(Cl)c1	> 44.7
CN(C)S(=O)(=O)c1cccc(C(=O)N2CCN(C(=O)C3CCCO3)CC2)c1 (centres undefined)	> 59.3
COC(=O)c1[nH]c2c(c1C)C(=O)CC(c1cccc(OC)c1)C2 (centres undefined)	2.1 (≈ 6.7 µM)
COc1ccccc1C(=O)CSc1nccn1C	35.9 (≈ 137 µM)
Cc1cccc(Nc2c([N+](=O)[O-])ccc3nonc23)c1	< 0.1
Cc1ccc(Nc2nc(=O)c3cccnc3s2)c(Br)c1	2.4 (≈ 6.89 µM)

Structure (SMILES)	solubility kinetic [µg/mL]
COc1ccc(CCn2c([S-])nc3ccccc3c2=O)cc1.[Na+]	1.5
CCCn1c(Oc2ccccc2)nc2c1c(=O)n(C)c(=O)n2C	45 (≈ 143 µM)
CC(=O)Nc1c(-c2ccccc2Cl)c(=O)c2ccccc2n1C	> 49
CC(=O)Nc1c(F)cc(Br)cc1F	> 37.5
COc1ccc(S(=O)(=O)NC(C)C(=O)N2CCCC2)cc1Cl (centres undefined)	47 (≈ 136 µM)
Cc1nn(CC(=O)N2CCc3ccccc32)c(C)c1S(=O)(=O)NC(C)(C)C	> 58.6
CCOc1ccc(CCNC(=O)Nc2ccccc2)cc1OCC	5.9 (≈ 18 µM)
CN(C)CCOC(C)(c1ccccc1)c1ccccn1.O=C(O)CCC(=O)O (centres undefined)	> 58.3
Cl.N=C1CCCN1c1ccccc1O	30.6
O=S(=O)(NCc1ccc(Cl)cc1)c1cccc2cccnc12	43.2 (≈ 130 µM)
O=C(Nc1ccc2ccccc2n1)c1ccccc1	29.8 (≈ 120 µM)
O=C(NC1CC2CCC(C1)N2Cc1ccccc1)c1cccc(F)c1 (centres undefined)	> 50.8
COCc1c(C(=O)OCC(=O)c2ccc[nH]2)oc2ccccc12	11.1 (≈ 35.4 µM)
Cc1ccc(NC2Sc3ccccc3NC2=O)cc1 (centres undefined)	9.6 (≈ 35.5 µM)
Nc1ccccc1SCC(=O)Nc1cccc2ccccc12	32.6 (≈ 106 µM)
CN1CCN(CC(O)COc2ccccc2)CC1 (centres undefined)	33.4 (≈ 133 µM)
CC(C)c1nc2sc3c(=O)[nH]c(=S)[nH]c3c2c2c1CCCC2	45.9 (≈ 138 µM)
O=C(CSc1nncn1-c1ccccc1)N1CCCC1	> 43.3
Fc1ccc(-c2onc3ccc(C4OCCO4)cc23)cc1	< 0.6
O=C(Cc1cccs1)Nc1ccc([N+](=O)[O-])cc1	39 (≈ 149 µM)

Structure (SMILES)	solubility kinetic [µg/mL]
O=C(NC(=S)Nc1cccc([N+](=O)[O-])c1)c1ccccc1	1.2 (≈ 3.98 µM)
Cc1ccc(C)c(S(=O)(=O)NCCC(=O)N2CCCC(C(N)=O)C2)c1 (centres undefined)	> 55.1
COC(=O)c1[nH]c2ccccc2c1Sc1ccccc1	0.9 (≈ 3.18 µM)
COc1ccc(-c2cc(C(F)(F)F)c(C#N)c(=O)[nH]2)cc1	21.2 (≈ 72.1 µM)
CC1CCCCC1NC(=O)c1cc(S(=O)(=O)N2CCOCC2)ccc1Cl (centres undefined)	16.7 (≈ 41.7 µM)
CC(=O)NC(c1cccc([N+](=O)[O-])c1)c1ccc2cccnc2c1O (centres undefined)	3.5 (≈ 10.4 µM)
Cc1cccc(N2CN(S(=O)(=O)c3cccc([N+](=O)[O-])c3)c3nc4ccccc4nc32)c1	0.7 (≈ 1.56 µM)
COC(=O)CNC(=S)NC(=O)c1ccc(C(C)(C)C)cc1	25.4 (≈ 82.4 µM)
O=C(N/N=C\c1cccnc1)c1ccc(Cl)cc1Cl	> 44.1
COc1ccc(CC(=O)OC(C)C(=O)Nc2c(C)n(C)n(-c3ccccc3)c2=O)cc1OC (centres undefined)	> 68
CCC(C)(C)c1ccc(Oc2ccc(N)cc2)cc1	4.2 (≈ 16.4 µM)
Cc1ccc(C(=O)NC(C)c2ccc(-n3ccnc3)cc2)cc1 (centres undefined)	> 45.8
CC(C)NC(=O)NC(=O)COC(=O)c1cc[n+]([O-])cc1	> 42.2
COc1ccc(CNC(=S)Nc2ccccc2)cc1	> 40.9
CC(NS(=O)(=O)c1ccc([N+](=O)[O-])cc1)C(=O)NN (centres undefined)	> 43.2
CC1Cc2ccccc2N1C(=O)CSc1ncccn1 (centres undefined)	> 42.8
CCc1ccccc1NC(=S)N1CCN(c2ccccc2F)CC1	4.4 (≈ 12.8 µM)
CC(=O)c1sc2c(c1N)c(=O)[nH]c(=O)n2-c1ccccc1	8.5 (≈ 28.2 µM)
CC(NC(=O)COC(=O)c1ccc2c(c1)OCCO2)c1ccccc1 (centres undefined)	11.4 (≈ 33.4 µM)
